Positions count from the first letter of the chain named. Names and notes keep the numbering of the source. Read-outs that look alike come from different tables or passages of the source.
B1: NMN deamidase (PncC) from E. coli, wild type (enzyme, UniProt P0A6G3 1-165, looked up)
chain: MTDSELMQLSEQVGQALKARGATVTTAESCTGGWVAKVITDIAGSSAWFERGFVTYSNEAKAQMIGVREETLAQHGAVSEPVVVEMAIGALKAARADYAVSISGIAGPDGGSEEKPVGTVWFAFATARGEGITRRECFSGDRDAVRRQATAYALQTLWQQFLQNT
notes: NMN deamidase PncC (EC 3.5.1.42), E. coli; the enzyme consists of 165 residues, 17.6 kDa; expressed from pCA24N-pncC; also called WT PncC; wild-type PncC; source: E. coli BL21(DE3), purified (HisTrap HP column, dialysis); not shown: His tag (from the HisTrap HP purification)
B2: S29A PncC (enzyme, E. coli, UniProt P0A6G3 1-165, looked up)
chain: B1 chain with S29A
notes: NMN deamidase PncC (EC 3.5.1.42), E. coli; 165 residues; mutagenized pCA24N-pncC plasmid; also called PncC S29A mutant; source: E. coli BL21(DE3), purified (HisTrap HP column, dialysis); not shown: His tag (from the HisTrap HP purification)
B3: K61Q PncC (enzyme, E. coli, UniProt P0A6G3 1-165, looked up)
chain: B1 chain with K61Q
notes: NMN deamidase PncC (EC 3.5.1.42), E. coli; 165 residues; mutagenized pCA24N-pncC plasmid; also called PncC K61Q mutant; source: E. coli BL21(DE3), purified (HisTrap HP column, dialysis); not shown: His tag (from the HisTrap HP purification)
B4: S29A PncC: catalytically inactive S29A mutant of E. coli NMN deamidase PncC (protein)
chain: B1 chain with S29A
modifications: left off: His tag (from the HisTrap HP purification; vector pCA24N), end not stated, state not stated
B5: WT PncC: wild type NMN deamidase (PncC) from E. coli, recombinant (protein)
chain: B1 chain
modifications: left off: His tag (from the HisTrap HP purification; vector pCA24N), end not stated, state not stated
notes: wild type NMN deamidase (PncC) from E. coli, recombinant
B6: K61Q PncC: catalytically inactive K61Q mutant of E. coli NMN deamidase PncC (protein)
chain: B1 chain with K61Q
modifications: left off: His tag (from the HisTrap HP purification; vector pCA24N), end not stated, state not stated

How the values were obtained:
K61Q PncC = target: T1, K61Q PncC (Escherichia coli, UniProt P0A6G3, K61Q); format: binding, E. coli
T1 construct: made in house; host or cells: E. coli BL21(DE3)
Protocol: (§1) Experimental data were processed using the OriginPro 8.0 (OriginLab Corporation, Northampton, MA, USA). A non-linear curve analysis (Hill1 plot) was used for plotting the F0/F values in function of the metabolite concentration, to obtain the Kd value.
Percentage of the K61Q protein that would exist in complex with NMN in a cellular setting was calculated based on the Kd value, by using the equation: %=100/1+Kd/[NMN]

S29A PncC = target: T2, S29A PncC (Escherichia coli, UniProt P0A6G3, S29A); format: binding, E. coli
T2 construct: made in house; host or cells: E. coli BL21(DE3)
From the text: as §1

[1] = tested on: glutamine binding protein (GlnBP); conditions: GlnBP, high concentration of nucleotide
Protocol: Steady-state measurements were performed using an ISS_K2 fluorometer (ISS, Urbana-Champaign, IL, USA), equipped with a one-cell temperature-controlled sample holder. […] Excitation and emission slit widths were fixed at 0.5 and 1.0 nm, respectively. […] The nucleotides were added to reach the indicated final concentration (from 0.18 to 96 µM) with an incubation interval of 10 min. Triplicate readings were done for each experimental point. Experiments were repeated three times (for NMN and NaMN) or twice (for all the other metabolites). Controls experiments were performed using the E. coli Glutamine Binding Protein (GlnBP, 3µM), with increasing concentration of NMN or NaMN, at the same conditions.
Percentages of reduction of fluorescence intensities compared to buffer, were calculated as follow: (normalized fluorescence in presence of analyte at a given [µM]/normalized fluorescence in presence of corresponding volume of buffer) × 100.

[2] = target: the molecule itself; assay: SEC; gel filtration on Superose 12 HR 10/30, 50 mM HEPES pH 7.5, 0.3 M NaCl, 1 mM TCEP; 45 ug wild type, 30 ug mutants; calibrated with protein standards; self-association (dimer)
[3] = Thermal stability (melting temperature) of PncC proteins without ligand; format: physicochemical; conditions: absence of NMN
Protocol: Protein melting temperature (Tm) was determined by fluorescence-based thermal shift assay using fluoroprobe SYPRO Orange dye (Invitrogen, Waltham, MA, USA). The assay was performed in a RotorGene 3000 real-time PCR (Corbett, Biocompare, San Francisco, CA, USA). The assay mixture contained 50 mM Hepes/NaOH, pH 7.5, 300 mM NaCl, 1 mM TCEP, 1 μM protein, Sypro orange at 10-fold dilution from a 5000-fold stock, and the various ligands at the tested concentrations, in a final volume of 25 μL. The mixtures were pre-heated at 40 °C for 5 s, then heated to 50 °C in 1 s, and finally heated from 50 to 99 °C with a heating-up rate of 0.5 °C every 5 s. The fluorescence intensity was measured with Ex/Em: 470/585 nm. The melting temperature was determined by taking the maximum point of the slope-derivative peak. Kd values were determined by plotting the percentage of unfolded proteins as a function of nucleotide concentration at a fixed temperature, after normalization of the unfolding curves. Fitting of the data was performed using the equations reported in [34]. Three independent experiments were carried out and values were reported as the means ± standard deviation.

[4] = nucleotide 96 µM (maximum quenching)

T1 sequence (P0A6G3 whole entry K61Q): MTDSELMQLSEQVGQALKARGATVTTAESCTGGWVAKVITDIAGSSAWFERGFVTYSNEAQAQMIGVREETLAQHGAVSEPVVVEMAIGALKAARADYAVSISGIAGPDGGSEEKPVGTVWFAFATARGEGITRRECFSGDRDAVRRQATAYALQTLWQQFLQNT
T2 sequence (P0A6G3 whole entry S29A): as the sequence (P0A6G3 whole entry K61Q) above, with S29A, Q61K counted along it

Molecule | K61Q PncC fluorescence quenching (%) vs buffer (K61Q PncC; nucleotide 0.185 µM) [%] | K61Q PncC fluorescence quenching (%) vs buffer (K61Q PncC; nucleotide 0.375 µM) [%] | K61Q PncC fluorescence quenching (%) vs buffer (K61Q PncC; nucleotide 0.75 µM) [%] | K61Q PncC fluorescence quenching (%) vs buffer (K61Q PncC; nucleotide 1.5 µM) [%] | K61Q PncC fluorescence quenching (%) vs buffer (K61Q PncC; nucleotide 3 µM) [%] | K61Q PncC fluorescence quenching (%) vs buffer (K61Q PncC; nucleotide 6 µM) [%] | K61Q PncC fluorescence quenching (%) vs buffer (K61Q PncC; nucleotide 12 µM) [%] | K61Q PncC fluorescence quenching (%) vs buffer (K61Q PncC; nucleotide 24 µM) [%] | K61Q PncC fluorescence quenching (%) vs buffer (K61Q PncC; nucleotide 48 µM) [%] | S29A PncC fluorescence quenching (%) vs buffer (S29A PncC; nucleotide 0.185 µM) [%] | S29A PncC fluorescence quenching (%) vs buffer (S29A PncC; nucleotide 0.375 µM) [%] | S29A PncC fluorescence quenching (%) vs buffer (S29A PncC; nucleotide 0.75 µM) [%] | S29A PncC fluorescence quenching (%) vs buffer (S29A PncC; nucleotide 1.5 µM) [%] | S29A PncC fluorescence quenching (%) vs buffer (S29A PncC; nucleotide 3 µM) [%] | S29A PncC fluorescence quenching (%) vs buffer (S29A PncC; nucleotide 6 µM) [%] | S29A PncC fluorescence quenching (%) vs buffer (S29A PncC; nucleotide 12 µM) [%] | S29A PncC fluorescence quenching (%) vs buffer (S29A PncC; nucleotide 24 µM) [%] | S29A PncC fluorescence quenching (%) vs buffer (S29A PncC; nucleotide 48 µM) [%] | reduction of fluorescence of GlnBP [1] | also measured
NC(=O)c1cccnc1 [Nam, nicotinamide] | 0 | 0.34 | 0.87 | 0.68 | 0.91 | 0.26 | 1.15 | 1.04 | 1.14 | 0.08 | 0.18 | 0.48 | 1.49 | 2.51 | 2.65 | 3.29 | 3.29 | 3.71 | do not affect | S29A PncC fluorescence quenching (%) vs buffer (S29A PncC; [4]): 5.01%
O=C(O)c1cccnc1 [Na, nicotinic acid] | 0.49 | 1.2 | 2.11 | 2.66 | 2.89 | 2.81 | 3.26 | 2.74 | 3.69 | 0 | 0 | 0 | 0 | 0 | 0 | 0 | 0.16 | 0.62 | do not affect | –
Nc1ncnc2c1ncn2[C@@H]1O[C@H](COP(=O)(O)OP(=O)([O-])OC[C@H]2O[C@@H]([n+]3cccc(C(=O)O)c3)[C@H](O)[C@@H]2O)[C@@H](O)[C@H]1O [NaAD, nicotinic acid adenine dinucleotide] | 0.65 | 1.02 | 1.68 | 2.19 | 2.25 | 2.39 | 3.72 | 4.13 | 5.77 | 0 | 0 | 0 | 0 | 0 | 0 | 0 | 0 | 1.97 | 6.3% | –
NC(=O)c1ccc[n+]([C@@H]2O[C@H](COP(=O)(O)OP(=O)([O-])OC[C@H]3O[C@@H](n4cnc5c(N)ncnc54)[C@H](OP(=O)(O)O)[C@@H]3O)[C@@H](O)[C@H]2O)c1 [NADP] | 0 | 0.06 | 0.29 | 0.55 | 0.42 | 0 | 1.20 | 1.59 | 2.90 | 0 | 0 | 0.67 | 1.60 | 2.74 | 2.87 | 3.89 | 4.31 | 6.36 | 4.8% | K61Q PncC fluorescence quenching (%) vs buffer (K61Q PncC; nucleotide 96 µM): 5.1%
NC(=O)c1ccc[n+]([C@@H]2O[C@H](CO)[C@@H](O)[C@H]2O)c1 [NR, nicotinamide riboside] | 2.13 | 2.97 | 3.37 | 3.71 | 3.13 | 2.36 | 2.7 | 2.1 | 1.79 | 0 | 0.12 | 0.80 | 0.96 | 1.84 | 1.98 | 2.29 | 3.13 | 3.51 | do not affect | S29A PncC fluorescence quenching (%) vs buffer (S29A PncC; [4]): 4.48%
NC(=O)c1ccc[n+]([C@@H]2O[C@H](COP(=O)([O-])OP(=O)(O)OC[C@H]3O[C@@H](n4cnc5c(N)ncnc54)[C@H](O)[C@@H]3O)[C@@H](O)[C@H]2O)c1 [NAD, nicotinamide adenine dinucleotide] | 0.63 | 1.39 | 1.57 | 0.80 | 0.85 | 0 | 0.65 | 0.36 | 0.72 | 0.52 | 0.32 | 0.80 | 0 | 0.19 | 0.32 | 1.35 | 2.54 | 4.58 | 6.6% | –
B1 | – | – | – | – | – | – | – | – | – | – | – | – | – | – | – | – | – | – | – | stoichiometry N [2]: 2
B2 | – | – | – | – | – | – | – | – | – | – | – | – | – | – | – | – | – | – | – | stoichiometry N [2]: 2
B3 | – | – | – | – | – | – | – | – | – | – | – | – | – | – | – | – | – | – | – | stoichiometry N [2]: 2
B4 | – | – | – | – | – | – | – | – | – | – | – | – | – | – | – | – | – | – | – | Tm (melting temperature of the protein) [3]: 85.5 °C
B5 | – | – | – | – | – | – | – | – | – | – | – | – | – | – | – | – | – | – | – | Tm (melting temperature of the protein) [3]: 86.1 °C
B6 | – | – | – | – | – | – | – | – | – | – | – | – | – | – | – | – | – | – | – | Tm (melting temperature of the protein) [3]: 67.5 °C

From PMC8231969, “Characterization of Two NMN Deamidase Mutants as Possible Probes for an NMN Biosensor” (International Journal of Molecular Sciences, 2021)
